{"source": "patent US20090137617A1", "about": "“USE OF HAPTOGLOBIN GENOTYPING IN DIAGNOSIS AND TREATMENT OF CARDIOVASCULAR DISEASE” (priority 2007, published 2009)", "key": {"[1]": {"conditions": "per 1 mg, according to the National Formulary, cited from earlier work"}, "[2]": {"system": "DM individuals with the Hp 2-2 genotype", "test": "ICARE study: randomized placebo-controlled trial of vitamin E, cardiovascular events (MI, stroke, CVD death)", "type": "in vivo, human", "excerpt": "The study protocol of the ICARE study involves the following: participants were drawn from 47 primary health clinics of the […] Health Services in the northern sector of Israel. […] These Hp 2-2 individuals were randomly assigned to treatment with either vitamin E or placebo. The major study outcomes (MI, stroke, CVD death) were identified prospectively in this population over an 18 month period. A preplanned secondary analysis of ICARE was to assess the ability of vitamin E therapy to influence outcomes in those ICARE participants who were also taking statins. Statin use as prospectively defined in ICARE was based on the use of statins by the participant in at least eight of the twelve months preceding enrollment of the participant in the study. The decision to use statins for a particular participant was under the discretion of the patient's primary care physician and was in no way influenced by the patient's participation in the ICARE study […] However, only about half of the Hp 2-2 DM participants in ICARE received statin therapy. […] Of the 801 Hp 2-2 individuals taking […] cohort, 386 were randomized to vitamin E and 415 to placebo. There was no significant difference in the baseline characteristics, concurrent medications, or diabetes characteristics between those individuals taking statins who were randomized to placebo or vitamin E."}, "[3]": {"system": "cultured endothelial cells", "conditions": "vitamin E added to the cellular preparation; cited from earlier work"}, "[4]": {"conditions": "animal studies; cited from earlier work"}, "[5]": {"conditions": "double-blind protocols and other large studies, even at high doses; cited from earlier work"}}, "note": "Where two headings read alike, the source gives them in different places.", "data": [{"compound": "Cc1c(C)c2c(c(C)c1O)CC[C@@](C)(CCC[C@H](C)CCC[C@H](C)CCCC(C)C)O2", "note": "[d-alpha-tocopherol]", "values": [{"measurement": "specific activity (IU per milligram)", "setting": "[1]", "result": 1.49, "unit": "IU"}]}, {"compound": "alpha-tocopherol [vitamin E]", "values": [{"measurement": "event rate (MI, stroke, CVD death)", "setting": "[2]; Hp 2-2 DM individuals taking statins (at least eight of the twelve months preceding enrollment), randomized to vitamin E, 18 month period", "result": 1.3, "unit": "%"}, {"measurement": "hazard ratio [HR] vs placebo", "setting": "[2]; Hp 2-2 DM individuals taking statins, vitamin E vs placebo, 95% CI 0.15-0.83, p=0.017 by log-rank", "result": 0.31}, {"measurement": "reduction in CVD events", "setting": "[2]; all Hp 2-2 DM participants in ICARE, vitamin E vs placebo", "result": 50, "unit": "%"}, {"measurement": "event rate (MI, stroke, CVD death)", "setting": "[2]; statin use widened to at least one of the twelve months preceding enrollment, p=0.013 vs placebo", "result": 1.7, "unit": "%"}, {"measurement": "oxidative modification of LDL", "setting": "[3]", "result": "totally inhibited"}, {"measurement": "carcinogenicity / teratogenicity", "setting": "[4]", "result": "not carcinogenic or teratogenic"}, {"measurement": "side effects", "setting": "[5]", "result": "few side effects"}]}, {"compound": "CC(=O)Oc1c(C)c(C)c2c(c1C)CC[C@@](C)(CCC[C@H](C)CCC[C@H](C)CCCC(C)C)O2", "note": "(racemic) [dl-alpha-tocopheryl acetate]", "values": [{"measurement": "specific activity (IU per milligram)", "setting": "[1]; listed as all-rac-α-tocopherol acetate", "result": 1.00, "unit": "IU"}]}, {"compound": "Cc1c(C)c2c(c(C)c1O)CCC(C)(CCCC(C)CCCC(C)CCCC(C)C)O2", "note": "(racemic) [dl-alpha-tocopherol]", "values": [{"measurement": "specific activity (IU per milligram)", "setting": "[1]", "result": 1.10, "unit": "IU"}]}, {"compound": "CC(=O)Oc1c(C)c(C)c2c(c1C)CC[C@@](C)(CCC[C@H](C)CCC[C@H](C)CCCC(C)C)O2", "note": "[d-alpha-tocopheryl acetate]", "values": [{"measurement": "specific activity (IU per milligram)", "setting": "[1]; listed as RRR-.alpha-tocopherol acetate", "result": 1.36, "unit": "IU"}]}]}
